± gives the standard deviation of the averaged measurements.
How the values were obtained:
AFATINIB = compound: CN(C)C/C=C/C(=O)Nc1cc2c(Nc3ccc(F)c(Cl)c3)ncnc2cc1O[C@H]1CCOC1 [AFATINIB]; experiment: surviving fraction relative to DMSO-only wells; higher = less growth inhibition; settings: exposure time: 5 days
How it was run: (§1)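 Surviving fraction was calculated by normalising CellTiter-Glo luminescence to the median of DMSO-only wells. Tumour cell lines in log phase were seeded in 384-well plates at 250–500 cells per well, and 24 hours later were exposed continuously for five days to inhibitors at 0.5, 1, 5, 10, 50, 100, 500 and 1000 nM.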

SAPACITABINE = compound: CCCCCCCCCCCCCCCC(=O)Nc1ccn([C@@H]2O[C@H](CO)[C@@H](O)[C@@H]2C#N)c(=O)n1 [SAPACITABINE]; experiment: as above; settings: exposure time: 5 days
How it was run: as §1

Row | Test System | surviving fraction (AFATINIB; 0.5 nM) | surviving fraction (AFATINIB; 1 nM) | surviving fraction (AFATINIB; 5 nM) | surviving fraction (AFATINIB; 10 nM) | surviving fraction (AFATINIB; 50 nM) | surviving fraction (AFATINIB; 100 nM) | surviving fraction (AFATINIB; 500 nM) | surviving fraction (AFATINIB; 1000 nM) | surviving fraction (SAPACITABINE; 0.5 nM) | surviving fraction (SAPACITABINE; 1 nM) | surviving fraction (SAPACITABINE; 5 nM) | surviving fraction (SAPACITABINE; 10 nM) | surviving fraction (SAPACITABINE; 50 nM) | surviving fraction (SAPACITABINE; 100 nM) | surviving fraction (SAPACITABINE; 500 nM) | surviving fraction (SAPACITABINE; 1000 nM)
1 | H23 LUNG | 0.887 ± 0.035 | 0.817 ± 0.048 | 0.507 ± 0.024 | 0.42 ± 0.015 | 0.387 ± 0.018 | 0.368 ± 0.029 | 0.355 ± 0.021 | 0.288 ± 0.002 | 0.891 ± 0.02 | 0.894 ± 0.025 | 0.916 ± 0.028 | 0.924 ± 0.015 | 0.868 ± 0.051 | 0.668 ± 0.024 | 0.301 ± 0.013 | 0.264 ± 0.014
2 | HCC38 BREAST | 1.37 ± 0.28 | 1.23 ± 0.18 | 1.27 ± 0.074 | 1.26 ± 0.044 | 1.2 ± 0.2 | 1.17 ± 0.17 | 1 ± 0.18 | 0.749 ± 0.098 | 0.958 ± 0.075 | 0.931 ± 0.092 | 1.02 ± 0.21 | 0.801 ± 0.02 | 0.594 ± 0.17 | 0.525 ± 0.04 | 0.414 ± 0.086 | 0.274 ± 0.088
3 | HCC70 BREAST | 1.02 ± 0.064 | 0.981 ± 0.067 | 1 ± 0.015 | 0.965 ± 0.092 | 0.967 ± 0.022 | 1.02 ± 0.093 | 0.962 ± 0.016 | 0.827 ± 0.1 | 0.968 ± 0.09 | 0.935 ± 0.058 | 1.03 ± 0.036 | 0.97 ± 0.023 | 0.746 ± 0.065 | 0.635 ± 0.0092 | 0.4057 ± 0.0035 | 0.332 ± 0.028
4 | HCC78 LUNG | 0.943 ± 0.12 | 0.936 ± 0.17 | 0.867 ± 0.21 | 0.787 ± 0.19 | 0.64 ± 0.16 | 0.682 ± 0.13 | 0.383 ± 0.13 | 0.235 ± 0.027 | 0.831 ± 0.058 | 0.916 ± 0.25 | 0.913 ± 0.038 | 0.354 ± 0.035 | 0.445 ± 0.095 | 0.123 ± 0.052 | 0.039 ± 0.0087 | 0.0357 ± 0.0059
5 | HCC1395 BREAST | 1.05 ± 0.14 | 1.14 ± 0.1 | 1.03 ± 0.043 | 1.13 ± 0.046 | 1.01 ± 0.15 | 1.12 ± 0.026 | 1.05 ± 0.23 | 0.92 ± 0.12 | 0.861 ± 0.028 | 0.828 ± 0.045 | 0.949 ± 0.035 | 0.877 ± 0.04 | 0.935 ± 0.14 | 0.889 ± 0.028 | 0.808 ± 0.16 | 0.715 ± 0.15
6 | HCC1954 BREAST | 0.969 ± 0.079 | 0.886 ± 0.021 | 0.763 ± 0.028 | 0.56 ± 0.0078 | 0.471 ± 0.094 | 0.479 ± 0.025 | 0.266 ± 0.038 | 0.145 ± 0.011 | 0.436 ± 0.047 | 0.437 ± 0.016 | 0.445 ± 0.058 | 0.559 ± 0.1 | 0.464 ± 0.037 | 0.371 ± 0.014 | 0.425 ± 0.0067 | 0.343 ± 0.035
7 | HCT15 LARGE INTESTINE | 1.12 ± 0.03 | 1.05 ± 0.02 | 1.04 ± 0.064 | 1.05 ± 0.027 | 1.1 ± 0.052 | 1.06 ± 0.068 | 0.97 ± 0.081 | 0.632 ± 0.063 | 0.76 ± 0.048 | 0.693 ± 0.056 | 0.713 ± 0.064 | 0.298 ± 0.063 | 0.458 ± 0.074 | 0.143 ± 0.021 | 0.141 ± 0.013 | 0.0447 ± 0.0085
8 | HMT3552 BREAST | 0.823 | 0.878 | 0.885 | 0.727 | 0.904 | 0.881 | 0.593 | 0.278 | 0.838 ± 0.009 | 0.825 ± 0.075 | 0.943 ± 0.027 | 0.887 ± 0.053 | 1.141 ± 0.0031 | 1 ± 0.093 | 0.418 ± 0.019 | 0.303 ± 0.024
9 | HOS BONE | 1.01 ± 0.027 | 1.03 ± 0.012 | 1.017 ± 0.0066 | 1.01 ± 0.016 | 1.02 ± 0.014 | 1.02 ± 0.023 | 0.979 ± 0.048 | 0.858 ± 0.025 | 0.899 ± 0.01 | 0.912 ± 0.0076 | 0.927 ± 0.018 | 0.911 ± 0.024 | 0.975 ± 0.041 | 0.831 ± 0.026 | 0.209 ± 0.035 | 0.224 ± 0.007
10 | HOSMNG BONE | 0.944 ± 0.077 | 0.974 ± 0.04 | 0.98 ± 0.021 | 0.915 ± 0.11 | 1.04 ± 0.054 | 1.02 ± 0.13 | 1.06 ± 0.048 | 0.991 ± 0.088 | 0.96 ± 0.087 | 1.02 ± 0.032 | 1.06 ± 0.021 | 1.04 ± 0.031 | 1.12 ± 0.078 | 1.16 ± 0.016 | 0.948 ± 0.021 | 0.703 ± 0.046
11 | HS578T BREAST | 1.01 ± 0.096 | 0.937 ± 0.017 | 1.08 ± 0.13 | 1.12 ± 0.039 | 1.17 ± 0.13 | 1.02 ± 0.052 | 0.662 ± 0.054 | 0.243 ± 0.048 | 0.81 ± 0.081 | 0.76 ± 0.082 | 0.841 ± 0.024 | 0.899 ± 0.077 | 1.13 ± 0.1 | 0.987 ± 0.19 | 0.681 ± 0.061 | 0.668 ± 0.13
12 | HSSYII SYNOVIAL | 0.981 ± 0.053 | 0.965 ± 0.1 | 0.941 ± 0.035 | 0.984 ± 0.044 | 0.94 ± 0.024 | 0.922 ± 0.064 | 0.635 ± 0.019 | 0.379 ± 0.017 | 0.797 ± 0.015 | 0.636 ± 0.061 | 0.726 ± 0.032 | 0.132 ± 0.022 | 0.537 ± 0.033 | 0.315 ± 0.005 | 0.123 ± 0.0085 | 0.0603 ± 0.0046
13 | HT1080 SOFT TISSUE | 0.994 ± 0.033 | 1.02 ± 0.015 | 1.037 ± 0.0045 | 0.991 ± 0.048 | 0.985 ± 0.036 | 1 ± 0.047 | 0.943 ± 0.031 | 0.729 ± 0.055 | 1 ± 0.028 | 1.01 ± 0.029 | 1.02 ± 0.053 | 0.935 ± 0.053 | 0.591 ± 0.025 | 0.434 ± 0.012 | 0.314 ± 0.012 | 0.271 ± 0.0047
14 | HU09 BONE | 1.08 ± 0.085 | 1.02 ± 0.1 | 1.16 ± 0.074 | 1.14 ± 0.087 | 1.12 ± 0.067 | 1.06 ± 0.15 | 0.6 ± 0.049 | 0.231 ± 0.012 | 0.854 ± 0.062 | 0.812 ± 0.027 | 0.97 ± 0.061 | 0.882 ± 0.018 | 0.857 ± 0.021 | 0.537 ± 0.042 | 0.0813 ± 0.0049 | 0.0557 ± 0.0035
15 | HUO3N1 BONE | 1.03 ± 0.034 | 1 ± 0.019 | 1.06 ± 0.027 | 1.04 ± 0.068 | 1.03 ± 0.031 | 0.959 ± 0.017 | 0.824 ± 0.028 | 0.631 ± 0.034 | 0.915 ± 0.032 | 0.908 ± 0.036 | 0.931 ± 0.037 | 0.935 ± 0.024 | 0.886 ± 0.056 | 0.766 ± 0.056 | 0.528 ± 0.012 | 0.438 ± 0.019
16 | JIMT1 BREAST | 0.987 ± 0.023 | 0.994 ± 0.029 | 0.96 ± 0.015 | 0.909 ± 0.044 | 0.732 ± 0.028 | 0.687 ± 0.049 | 0.603 ± 0.012 | 0.301 ± 0.014 | 0.862 ± 0.018 | 0.8617 ± 0.0045 | 0.899 ± 0.032 | 0.87 ± 0.025 | 0.966 ± 0.046 | 0.859 ± 0.04 | 0.632 ± 0.015 | 0.558 ± 0.032

From the supplement of paper PMC6045584
